From PMC3967766 (Journal of medicinal chemistry, 2013)
Entries after “also recorded” stand apart in the source; their conditions may differ. Where two headings read alike, the source gives them in different places.

Columns and labels:
CB2 receptor [1] = target: T1, CB2 receptor (Homo sapiens, UniProt P34972); assay: cell-based LANCE cAMP assay in CHO cells stably expressing CB2
RAW 264.7 cells [2] = assay: MTT cytotoxicity assay on osteoclast precursors; format: cell-based, mouse; details: for cell viability versus vehicle control: 1.25 and 2.5 µM; for cell viability: 5 and 10 µM
RAW 264.7 cells [3] = assay: RANKL-induced osteoclast formation assay; details: 5 days; for inhibition rate of osteoclast formation: RANKL 15 ng/mL; for inhibitory activity on RANKL-induced osteoclast formation: RAW 264.7, RANKL 15 ng/mL
CB2 receptor [4] = target: T1, CB2 receptor; assay: [3H]CP-55,940 radioligand competition binding assay, CB2
CB1 receptor = CB1 receptor (Homo sapiens, UniProt P21554); assay: [3H]CP-55,940 radioligand competition binding assay, CB1; details: read-out: Ki (CB1); [3H]CP-55,940 competition, CB1 membrane protein
CB1 receptor, sequence (P21554 whole entry): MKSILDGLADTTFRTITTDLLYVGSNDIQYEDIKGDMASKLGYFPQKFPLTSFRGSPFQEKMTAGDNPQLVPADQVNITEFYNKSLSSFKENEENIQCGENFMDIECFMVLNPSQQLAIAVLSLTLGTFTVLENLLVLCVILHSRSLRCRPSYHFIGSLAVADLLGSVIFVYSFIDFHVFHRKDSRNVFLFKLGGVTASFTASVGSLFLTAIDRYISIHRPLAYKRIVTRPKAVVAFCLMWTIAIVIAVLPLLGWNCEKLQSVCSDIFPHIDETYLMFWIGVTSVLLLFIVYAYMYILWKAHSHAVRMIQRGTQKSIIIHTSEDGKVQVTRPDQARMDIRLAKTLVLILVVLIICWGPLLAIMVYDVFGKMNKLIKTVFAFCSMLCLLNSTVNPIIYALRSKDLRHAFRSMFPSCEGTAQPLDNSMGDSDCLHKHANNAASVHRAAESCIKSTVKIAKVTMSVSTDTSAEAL

T1 sequence (P34972 whole entry): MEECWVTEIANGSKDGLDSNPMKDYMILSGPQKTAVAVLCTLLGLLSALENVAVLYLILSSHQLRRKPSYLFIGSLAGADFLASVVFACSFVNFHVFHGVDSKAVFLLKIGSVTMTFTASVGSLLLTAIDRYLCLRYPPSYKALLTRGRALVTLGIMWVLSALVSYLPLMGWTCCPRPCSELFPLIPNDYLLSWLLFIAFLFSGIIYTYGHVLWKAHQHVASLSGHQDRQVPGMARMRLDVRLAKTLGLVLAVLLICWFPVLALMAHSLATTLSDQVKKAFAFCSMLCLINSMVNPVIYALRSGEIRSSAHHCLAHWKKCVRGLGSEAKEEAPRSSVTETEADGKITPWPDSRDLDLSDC

## CCN(CC)c1ccc(CN(c2ccc(C)cc2)S(=O)(=O)c2ccccc2)cc1 [Compound 54, N-(4-(Diethylamino)benzyl)-N-(p-tolyl)benzenesulfonamide]
CB2 receptor [1]; LANCE cAMP assay
  CB2 functional activity: inverse agonists

## CCN(CC)c1ccc(CN(c2ccc(Cl)cc2)S(=O)(=O)c2ccc(OC)cc2)cc1 [Compound 48, N-(4-Chlorophenyl)-N-(4-(diethylamino)benzyl)-4-methoxybenzenesulfonamide]
CB2 receptor [1]; LANCE cAMP assay
  CB2 functional activity: inverse agonists
RAW 264.7 cells [2]; 3 days, MTT
  cell viability versus vehicle control: not significantly affected
  cell viability: only some effects on cell viability
RAW 264.7 cells [3]; 1 µM
  inhibition rate of osteoclast formation: good inhibition activity
RAW 264.7 cells [3]
  inhibitory activity on RANKL-induced osteoclast formation: inhibit RANKL-induced osteoclastogenesis in a dose-dependent manner; also recorded: potent inhibitory activity

## CCCCCCC(C)(C)c1ccc([C@@H]2C[C@H](O)CC[C@H]2CCCO)c(O)c1 [CP55940, reference compound]
CB2 receptor [1]
  CB2 functional activity: agonists

## Cc1ccc(Cn2nc(C(=O)NC3C4(C)CCC(C4)C3(C)C)cc2-c2ccc(Cl)c(C)c2)cc1 (stereo not drawn) [Compound 5, SR144528, reference compound]
CB2 receptor [1]
  CB2 functional activity: inverse agonists

## CCCCCCC(C)(C)c1cc(OC)c([C@H]2C=C(CO)[C@H]3C[C@@H]2C3(C)C)c(OC)c1 (stereo in doubt) [HU308, reference compound]
CB2 receptor [1]; LANCE cAMP assay
  CB2 functional activity: agonists

## CCN(CC)c1ccc(CN([C@]23C[C@H]4C[C@H](C[C@H](C4)C2)C3)S(=O)(=O)c2cccc(C)c2)cc1 [Compound 25, N-((3s,5s,7s)-Adamantan-1-yl)-N-(4-(diethylamino)benzyl)-3-methylbenzenesulfonamide]
CB2 receptor [4]
  Ki: 25 nM
RAW 264.7 cells [3]
  inhibitory activity on RANKL-induced osteoclast formation: inhibit RANKL-induced osteoclastogenesis in a dose-dependent manner; also recorded: potent inhibitory activity

## CCN(CC)c1ccc(CN([C@]23C[C@H]4C[C@H](C[C@H](C4)C2)C3)S(=O)(=O)c2ccc(F)cc2)cc1 [Compound 21, N-((3s,5s,7s)-Adamantan-1-yl)-N-(4-(diethylamino)benzyl)-4-fluorobenzenesulfonamide]
CB2 receptor [1]; LANCE cAMP assay
  CB2 functional activity: inverse agonists

## CCN(CC)c1ccc(CN(c2ccc(C)cc2)S(=O)(=O)c2ccc(OC)cc2)cc1 [Compound 57, N-(4-(Diethylamino)benzyl)-4-methoxy-N-(p-tolyl)benzenesulfonamide]
CB2 receptor [1]; LANCE cAMP assay
  CB2 functional activity: inverse agonists
RAW 264.7 cells [2]; 5 µM, 3 days, MTT
  effect on cell viability: only slight effect on cell viability
RAW 264.7 cells [2]; 3 days, MTT
  cell viability versus vehicle control: not significantly affected
  cell viability: only some effects on cell viability
RAW 264.7 cells [2]; cell viability test, overall
  cytotoxic effects on RAW 264.7: very low cytotoxic effects
RAW 264.7 cells [3]; 0.1 µM
  inhibition rate of osteoclast formation: strongest inhibition activity
RAW 264.7 cells [3]; 1 µM
  inhibition rate of osteoclast formation: good inhibition activity
RAW 264.7 cells [3]
  inhibitory activity on RANKL-induced osteoclast formation: potent inhibitory activity; also recorded: inhibit RANKL-induced osteoclastogenesis in a dose-dependent manner

## CCN(CC)c1ccc(CN(C(=O)Cc2ccc(Cl)cc2)c2ccc(Cl)cc2)cc1 [Compound 52, N,2-bis(4-Chlorophenyl)-N-(4-(diethylamino)benzyl)acetamide]
CB1 receptor
  Ki: > 20000 nM
